The values that follow come from PMC5349910, “Discovery of BPR1K871, a quinazoline based, multi-kinase inhibitor for the treatment of AML and solid tumors: Rational design, synthesis, in vitro and in vivo evaluation” (Oncotarget, 2016).

SMILES strings stand for the structures. Entries after “also recorded” stand apart in the source; their conditions may differ. Where only a bound is given, the exact number is not on record here.

Data set [1] deals with FLT3^R834Q (Homo sapiens, UniProt P36888, R834Q). Briefly: KINOMEScan, FLT3 R834Q. Conditions: read-out: FLT3^R834Q % control.
In data set [2] the target is T1, hERG (Homo sapiens, UniProt Q12809).
T1 construct: Ricerca Biosciences, LLC
Briefly: hERG inhibition assay. Conditions: at 10 μM; performed by Ricerca Biosciences. The method, then: Considering the in vivo efficacy in different cancer models, particularly in pancreatic cancer, it is worthwhile to further investigate BPR1K871; pancreatic and liver cancer are the most fatal of cancers and 5-year relative survival for patients with pancreatic cancer is reported to be just 8% [43, 44].
[45] hERG inhibition was performed by Ricerca Biosciences, LLC
(In general: Block of hERG is tested as a sign of cardiac risk.)

Data set [3] concerns the target CYP 1A2 (Homo sapiens, UniProt P05177). In words: CYP inhibition assay, CYP 1A2. It is filed as in vitro ADME.
For data set [4], the target named is ABL1^H396P (Homo sapiens, UniProt P00519, H396P). Briefly: KINOMEScan, ABL1 H396P. The conditions noted are these: read-out: ABL1^H396P % control.
Data set [5] has as its system H2228 cells. Briefly: Anti-proliferative activity, H2228. It is filed as cell-based. The conditions noted are these: Homo sapiens, NCI-H2228; NSCLC-ALK; supplement values ± SEM; read-out: H2228 EC50.
Data set [6] concerns MESSA/DX cells. Briefly: Anti-proliferative activity, MESSA/DX. The format is cell-based. Conditions: Homo sapiens; Doxorubicin Drug Resisted MESSA.
In data set [7] the target is T2, AURKA (Homo sapiens, UniProt O14965).
T2 construct: recombinant GST-AURKA (residues Ser123-Ser401) containing the kinase domain; GST (N); made in house; host or cells: Sf9 insect cells
T2 sequence (O14965 123-401): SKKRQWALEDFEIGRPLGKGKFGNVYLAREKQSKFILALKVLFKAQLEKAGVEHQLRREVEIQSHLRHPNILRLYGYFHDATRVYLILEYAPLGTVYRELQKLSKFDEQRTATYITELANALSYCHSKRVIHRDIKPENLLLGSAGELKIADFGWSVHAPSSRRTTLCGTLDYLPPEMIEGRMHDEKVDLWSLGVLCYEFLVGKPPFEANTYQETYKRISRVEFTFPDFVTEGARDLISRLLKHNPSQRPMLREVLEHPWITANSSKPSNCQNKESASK
Briefly: AURKA inhibition assay (Kinase-Glo). The conditions noted are these: mean of at least two independent experiments, within ±15%. It is filed as biochemical. The procedure:
AURKA assay was conducted as previously described. Briefly, the recombinant GST-AURKA (residues Ser123-Ser401) containing the kinase domain was expressed in Sf9 insect cells.
Following incubation, 50 μL Kinase-Glo Plus Reagent (Promega, Madison, WI, USA) was added, and the mixture was incubated at 25°C for 20 min.

The test system of data set [8] is phospho AURKA (Thr288), AURKB (Thr232), AURKC (Thr198), and phospho histone H3 (Ser10). Briefly: Western blot, phosphorylation of Aurora substrates in HCT-116 cells. The format is cell-based, human. Conditions: 2.0 h, dose dependent. The source says: BPR1K871 inhibited phospho AURKA (Thr288), AURKB (Thr232), AURKC (Thr198), and phospho histone H3 (Ser10) formation in HCT-116 cells in a dose dependent manner (Figure 7A).
In general terms: In western blotting, separated proteins are transferred to a membrane and probed.

Data set [9] deals with FLT3^D835Y (Homo sapiens, UniProt P36888, D835Y). In words: KINOMEScan, FLT3 D835Y. Conditions: read-out: FLT3^D835Y % control.
For data set [10], the system named is MKN-45 cells. In words: Anti-proliferative activity, MKN-45. The format is cell-based. The conditions noted are these: Human Gastric Cancer.
In data set [11] the test system is MOLM-13 cells. In words: MTS cell viability assay, MOLM-13. Conditions: Homo sapiens, MOLM-13, 72 h, MTS, 72 h; AML-FLT3-ITD (heterozygous); supplement values ± SEM; read-out: MOLM-13 EC50. It is filed as cell-based, human. The procedure: The MTS cell viability assay was conducted as previously described. The MOLM-13 human leukemia cell line was obtained from the German Resource Centre for Biological Material (DSMZ, Braunschweig, Germany); the MV4-11 cell line was purchased from the American Type Culture Collection (ATCC, Manassas, VA, USA). […] To determine cell viability after drug treatment, assay for MOLM-13 and MV4-11 was performed by seeding 10000 cells per well in a 96-well culture plate. […] After 16 h, cells were then treated with vehicle or various concentrations of compound in medium for 72 h. Viable cells were quantified using the MTS method (Promega, Madison, WI, USA) according to the manufacturer's recommended protocol. Results were determined by measuring the absorbance at 490 nm using a plate reader (Victor2; PerkinElmer, Shelton, CT, USA).
(Tetrazolium dyes change colour on reduction, which living cells bring about.)

For data set [12], the target named is CYP 2E1 (Homo sapiens, UniProt P05181). Briefly: CYP inhibition assay, CYP 2E1. It is filed as in vitro ADME.
For data set [13], the target named is CYP 2C19 (Homo sapiens, UniProt P33261). Briefly: CYP inhibition assay, CYP 2C19. The format is in vitro ADME.
Data set [14] addresses T3, FLT3 (Homo sapiens, UniProt P36888).
T3 construct: FLT3 kinase catalytic domain (residues Tyr567-Ser993); made in house; host or cells: Sf9 insect cells (baculovirus, pBac-PAK8-GST-FLT3-KD)
T3 sequence (P36888 567-993): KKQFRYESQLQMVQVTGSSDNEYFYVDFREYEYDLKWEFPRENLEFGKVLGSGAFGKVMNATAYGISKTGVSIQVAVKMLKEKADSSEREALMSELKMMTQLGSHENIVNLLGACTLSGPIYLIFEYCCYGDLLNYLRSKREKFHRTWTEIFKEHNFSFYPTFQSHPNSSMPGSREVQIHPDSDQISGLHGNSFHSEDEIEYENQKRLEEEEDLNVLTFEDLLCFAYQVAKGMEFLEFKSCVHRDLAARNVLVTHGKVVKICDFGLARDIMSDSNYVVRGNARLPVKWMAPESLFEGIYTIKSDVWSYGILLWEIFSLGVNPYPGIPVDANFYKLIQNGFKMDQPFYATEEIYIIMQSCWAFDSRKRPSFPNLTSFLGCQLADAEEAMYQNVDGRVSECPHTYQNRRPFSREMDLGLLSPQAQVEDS
Briefly: FLT3 kinase inhibition assay (Kinase-Glo). It is filed as biochemical. The conditions noted are these: mean of at least two independent experiments, within ±15%. The procedure:
The FLT3 assay was conducted as previously described. Briefly, GST-FLT3-KD^WT containing the FLT3 kinase catalytic domain (residues Tyr567-Ser993) was expressed in Sf9 insect cells transfected with the baculovirus containing pBac-PAK8-GST-FLT3-KD plasmid.
Following incubation, 50 μL Kinase-Glo Plus Reagent (Promega, Madison, WI, USA) was added, and the mixture was incubated at 25°C for 20 min. A 70 μL aliquot of each reaction mixture was transferred to a black microliter plate, and luminescence was measured on a Wallac Vector 1420 multilabel counter (PerkinElmer, Shelton, CT, USA).

For data set [15], the system named is CL 1-5 cells. Briefly: Anti-proliferative activity, CL 1-5. The format is cell-based. Conditions: CL1-5; Human Lung Adenocarcinoma.

Sequence of CYP 1A2 (P05177 whole entry): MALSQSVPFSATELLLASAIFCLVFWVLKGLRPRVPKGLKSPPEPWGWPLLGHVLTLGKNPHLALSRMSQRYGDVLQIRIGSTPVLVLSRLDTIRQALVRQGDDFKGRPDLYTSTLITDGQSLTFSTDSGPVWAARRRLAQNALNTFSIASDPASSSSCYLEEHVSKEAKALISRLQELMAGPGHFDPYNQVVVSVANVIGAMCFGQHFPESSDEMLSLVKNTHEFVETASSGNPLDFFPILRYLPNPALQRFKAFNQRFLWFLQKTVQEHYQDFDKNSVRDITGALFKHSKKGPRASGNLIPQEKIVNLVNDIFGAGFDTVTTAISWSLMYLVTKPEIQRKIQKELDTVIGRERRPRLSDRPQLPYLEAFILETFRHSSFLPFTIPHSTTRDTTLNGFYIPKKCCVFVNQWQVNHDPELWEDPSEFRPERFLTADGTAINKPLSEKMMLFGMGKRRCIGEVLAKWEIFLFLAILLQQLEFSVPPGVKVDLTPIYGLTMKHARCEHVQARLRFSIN
Sequence of CYP 2E1 (P05181 whole entry): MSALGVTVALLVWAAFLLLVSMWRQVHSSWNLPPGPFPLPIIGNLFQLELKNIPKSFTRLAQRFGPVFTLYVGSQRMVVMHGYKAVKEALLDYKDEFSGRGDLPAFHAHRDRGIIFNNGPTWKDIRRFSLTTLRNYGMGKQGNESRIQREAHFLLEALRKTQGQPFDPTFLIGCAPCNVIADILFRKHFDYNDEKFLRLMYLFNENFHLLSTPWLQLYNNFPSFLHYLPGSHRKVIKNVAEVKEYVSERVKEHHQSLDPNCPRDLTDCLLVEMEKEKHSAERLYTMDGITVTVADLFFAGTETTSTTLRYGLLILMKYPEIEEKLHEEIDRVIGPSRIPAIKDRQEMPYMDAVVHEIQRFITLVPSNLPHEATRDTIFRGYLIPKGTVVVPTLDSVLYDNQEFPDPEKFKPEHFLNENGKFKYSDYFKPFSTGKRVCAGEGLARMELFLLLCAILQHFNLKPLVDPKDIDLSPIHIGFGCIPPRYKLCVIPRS
Sequence of CYP 2C19 (P33261 whole entry): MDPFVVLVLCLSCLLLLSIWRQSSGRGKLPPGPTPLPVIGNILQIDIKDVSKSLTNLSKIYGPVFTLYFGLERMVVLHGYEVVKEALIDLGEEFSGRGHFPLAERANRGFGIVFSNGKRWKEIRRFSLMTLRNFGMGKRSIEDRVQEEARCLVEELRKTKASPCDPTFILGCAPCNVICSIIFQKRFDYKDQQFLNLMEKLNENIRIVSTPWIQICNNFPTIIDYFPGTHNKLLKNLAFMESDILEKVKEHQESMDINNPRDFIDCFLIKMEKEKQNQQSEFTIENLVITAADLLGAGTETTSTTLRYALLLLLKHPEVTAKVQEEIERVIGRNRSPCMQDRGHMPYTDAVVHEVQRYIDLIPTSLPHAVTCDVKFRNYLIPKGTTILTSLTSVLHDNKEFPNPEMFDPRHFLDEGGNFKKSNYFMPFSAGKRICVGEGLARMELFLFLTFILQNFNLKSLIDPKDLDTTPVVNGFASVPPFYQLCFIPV
T1 sequence (Q12809 whole entry): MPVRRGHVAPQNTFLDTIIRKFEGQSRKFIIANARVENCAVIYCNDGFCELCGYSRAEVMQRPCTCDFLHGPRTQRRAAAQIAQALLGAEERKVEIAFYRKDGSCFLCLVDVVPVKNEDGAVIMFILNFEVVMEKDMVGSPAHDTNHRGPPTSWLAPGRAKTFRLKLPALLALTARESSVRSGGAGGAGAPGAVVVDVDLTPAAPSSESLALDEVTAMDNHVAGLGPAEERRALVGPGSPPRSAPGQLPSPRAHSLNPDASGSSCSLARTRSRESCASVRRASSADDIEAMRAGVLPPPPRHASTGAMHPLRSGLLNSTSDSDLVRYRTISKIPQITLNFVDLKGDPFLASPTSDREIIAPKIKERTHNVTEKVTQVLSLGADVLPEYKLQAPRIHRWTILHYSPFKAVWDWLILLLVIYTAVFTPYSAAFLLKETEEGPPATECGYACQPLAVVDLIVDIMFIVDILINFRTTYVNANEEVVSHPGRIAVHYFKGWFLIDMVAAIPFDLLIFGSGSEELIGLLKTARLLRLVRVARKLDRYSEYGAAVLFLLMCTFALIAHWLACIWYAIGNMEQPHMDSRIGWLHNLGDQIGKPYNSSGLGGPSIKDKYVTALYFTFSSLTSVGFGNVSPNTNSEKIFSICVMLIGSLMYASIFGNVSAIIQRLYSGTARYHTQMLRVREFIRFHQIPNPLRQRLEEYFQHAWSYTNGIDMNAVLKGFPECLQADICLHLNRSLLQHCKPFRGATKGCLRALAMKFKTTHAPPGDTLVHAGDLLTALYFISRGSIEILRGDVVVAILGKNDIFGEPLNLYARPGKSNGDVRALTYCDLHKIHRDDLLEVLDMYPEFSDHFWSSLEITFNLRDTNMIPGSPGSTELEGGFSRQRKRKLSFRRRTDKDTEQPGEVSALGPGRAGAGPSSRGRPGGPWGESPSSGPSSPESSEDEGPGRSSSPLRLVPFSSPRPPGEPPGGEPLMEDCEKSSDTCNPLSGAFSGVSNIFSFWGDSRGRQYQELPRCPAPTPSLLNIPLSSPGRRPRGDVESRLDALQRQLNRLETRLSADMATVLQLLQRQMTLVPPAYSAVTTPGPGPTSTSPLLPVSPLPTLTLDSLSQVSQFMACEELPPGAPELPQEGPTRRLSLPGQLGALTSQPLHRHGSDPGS

By IC50 is commonly meant the midpoint of a concentration-inhibition curve. A low value points to inhibition by little substance. The EC50 is the concentration giving half of the maximal effect. Consider `CN(C)CCCOc1ccc2c(NCCc3cnc(NC(=O)Nc4cccc(Cl)c4)s3)ncnc2c1` [BPR1K871, 1-(3-Chlorophenyl)-3-(5-(2-((7-(3-(dimethylamino)propoxy)quinazolin-4-yl)amino)ethyl)thiazol-2-yl)urea], for which the remaining binding at 1 µM in data set [1] was less than 5.2%; in data set [4], less than 4.4%; in [9] it was less than 5.2%. The compound also displayed a hERG inhibition in [2] of 66%. Also, the IC50 is more than 4000 nM in data set [3]; 22 nM in [7]; more than 4000 nM in data set [12]; more than 4000 nM in data set [13]; 19 nM in [14]. The EC50 in [5] was 212 nM; in data set [6], 6900 nM; in data set [10] it was 355 nM; in data set [11] it was approximately 5 nM; in data set [15] it was 1390 nM. Also, the “inhibition of phospho AURKA, AURKB, AURKC and phospho histone H3 formation” value in data set [8] is “inhibited; also recorded: decreased levels”.
